Assays:
Type in all cases: in vivo
Avena fatua (AVEFA) [1] = assay: Example B pre-emergence herbicidal activity, glasshouse pot test; details: 312 h, Rate 250 g/ha, evaluated after 13 days, read-out: Pre-Emergence Activity AVEFA (100=total damage to plant; 0=no damage to plant)
Experimental: (§1) Seeds of a variety of test species were sown in standard soil in pots. After cultivation for one day (pre-emergence) or after 8 days cultivation (post-emergence) under controlled conditions in a glasshouse (at 24/16° C., day/night; 14 hours light; 65% humidity), the plants were sprayed with an aqueous spray solution derived from the formulation of the technical active ingredient in acetone/water (50:50) solution containing 0.5% Tween 20 (polyoxyethelyene sorbitan monolaurate, CAS RN 9005-64-5). The test plants were then grown in a glasshouse under controlled conditions in a glasshouse (at 24/16° C., day/night; 14 hours light; 65% humidity) and watered twice daily. After 13 days for pre and post-emergence, the test was evaluated (100=total damage to plant; 0=no damage to plant). Alopecurus myosuroides (ALOMY), Avena fatua (AVEFA), Setaria faberi (SETFA), Echinochloa crus-galli (ECHCG) and Amaranthus retoflexus (AMARE)

[2] = system: Echinochloa crus-galli (ECHCG); assay: as above; details: 312 h, Rate 250 g/ha, evaluated after 13 days, read-out: Pre-Emergence Activity ECHCG (100=total damage to plant; 0=no damage to plant)
Experimental: as §1

[3] = system: Amaranthus retoflexus (AMARE); assay: as above; details: Amaranthus retroflexus, 312 h, Rate 250 g/ha, evaluated after 13 days, read-out: Pre-Emergence Activity AMARE (100=total damage to plant; 0=no damage to plant)
Experimental: as §1

Setaria faberi (SETFA) [4] = assay: as above; details: 312 h, Rate 250 g/ha, evaluated after 13 days, read-out: Pre-Emergence Activity SETFA (100=total damage to plant; 0=no damage to plant)
Experimental: as §1

[5] = system: Alopecurus myosuroides (ALOMY); assay: as above; details: 312 h, Rate 250 g/ha, evaluated after 13 days, read-out: Pre-Emergence Activity ALOMY (100=total damage to plant; 0=no damage to plant)
Experimental: as §1

Avena fatua (AVEFA) [6] = assay: Example B post-emergence herbicidal activity, glasshouse pot test; details: 312 h, rate 250 g/ha, evaluated after 13 days, read-out: Post-emergence activity AVEFA (100=total damage to plant; 0=no damage to plant)
Experimental: as §1

[7] = system: Echinochloa crus-galli (ECHCG); assay: as above; details: 312 h, rate 250 g/ha, evaluated after 13 days, read-out: Post-emergence activity ECHCG (100=total damage to plant; 0=no damage to plant)
Experimental: as §1

[8] = system: Amaranthus retoflexus (AMARE); assay: as above; details: Amaranthus retroflexus, 312 h, rate 250 g/ha, evaluated after 13 days, read-out: Post-emergence activity AMARE (100=total damage to plant; 0=no damage to plant)
Experimental: as §1

Setaria faberi (SETFA) [9] = assay: as above; details: 312 h, rate 250 g/ha, evaluated after 13 days, read-out: Post-emergence activity SETFA (100=total damage to plant; 0=no damage to plant)
Experimental: as §1

[10] = system: Alopecurus myosuroides (ALOMY); assay: as above; details: 312 h, rate 250 g/ha, evaluated after 13 days, read-out: Post-emergence activity ALOMY (100=total damage to plant; 0=no damage to plant)
Experimental: as §1

| Compound | pest or weed control at 250 g/ha (Avena fatua (AVEFA) [1]) [%] | pest or weed control at 250 g/ha [2] [%] | pest or weed control at 250 g/ha [3] [%] | pest or weed control at 250 g/ha (Setaria faberi (SETFA) [4]) [%] | pest or weed control at 250 g/ha [5] [%] | pest or weed control at 250 g/ha (Avena fatua (AVEFA) [6]) [%] | pest or weed control at 250 g/ha [7] [%] | pest or weed control at 250 g/ha [8] [%] | pest or weed control at 250 g/ha (Setaria faberi (SETFA) [9]) [%] | pest or weed control at 250 g/ha [10] [%] |
| --- | --- | --- | --- | --- | --- | --- | --- | --- | --- | --- |
| CSc1ccc(-c2nc(C3C(=O)[C@@H]4[C@H](C3=O)[C@H]3CC[C@@H]4O3)c(C)s2)cc1 (stereo partly drawn) [Compound T48] | 20 | 70 | 0 | 90 | 40 | 40 | 100 | 40 | 90 | 60 |
| Cc1sc(-c2ccc(C(C)C)cc2)nc1C1C(=O)[C@@H]2[C@H](C1=O)[C@H]1CC[C@@H]2O1 (stereo partly drawn) [Compound T51] | 90 | 100 | 0 | 100 | 80 | 80 | 100 | 0 | 90 | 90 |
| CCc1sc(-c2ccc(Br)cc2C)nc1C1C(=O)[C@@H]2[C@H](C1=O)[C@H]1CC[C@@H]2O1 (stereo partly drawn) [Compound T35] | 100 | 100 | 0 | 100 | 100 | 100 | 100 | 0 | 100 | 100 |
| Cc1cc(Br)ccc1-c1nc(C2C(=O)[C@@H]3[C@H](C2=O)[C@H]2CC[C@@H]3O2)c(C)s1 (stereo partly drawn) [Compound T39] | 90 | 80 | 0 | 90 | 70 | 100 | 100 | 0 | 100 | 100 |
| Cc1sc(-c2ccc(I)cc2)nc1C1C(=O)[C@@H]2[C@H](C1=O)[C@H]1CC[C@@H]2O1 (stereo partly drawn) [Compound T33] | 0 | 100 | 0 | 100 | 90 | 100 | 100 | 60 | 100 | 100 |
| Cc1ccc(-c2nc(C3C(=O)[C@@H]4[C@H](C3=O)[C@H]3CC[C@@H]4O3)c(C)s2)cc1 (stereo partly drawn) [Compound T20] | 60 | 70 | 0 | 80 | 50 | 100 | 100 | 0 | 100 | 90 |
| Cc1sc(-c2ccc(Cl)c(Cl)c2)nc1C1C(=O)[C@@H]2[C@H](C1=O)[C@H]1CC[C@@H]2O1 (stereo partly drawn) [Compound T31] | 70 | 90 | 20 | 90 | 60 | 50 | 80 | 0 | 70 | 60 |
| CCc1sc(-c2ccc(Cl)cc2)nc1C1=C(OC(=O)C2CC2)[C@@H]2[C@H](C1=O)[C@H]1CC[C@@H]2O1 (racemic) [Compound P4, cyclopropanecarboxylic acid-4-[2-(4-chloro-phenyl)-5-ethyl-thiazol-4-yl]-5-oxo-10-oxa-tricyclo[5.2.1.0*2,6*]dec-3-en-3-yl ester] | 90 | 90 | 0 | 90 | 60 | 100 | 100 | 0 | 100 | 100 |
| Cc1cc(Br)ccc1-c1nc(C2=C(OC(=O)C(C)(C)C)[C@@H]3[C@H](C2=O)[C@H]2CC[C@@H]3O2)c(C)s1 (racemic) [Compound P7] | 100 | 100 | 0 | 100 | 100 | 100 | 100 | 0 | 100 | 100 |
| Cc1sc(-c2ccc(Br)cc2F)nc1C1C(=O)[C@@H]2[C@H](C1=O)[C@H]1CC[C@@H]2O1 (stereo partly drawn) [Compound T36] | 80 | 100 | 0 | 100 | 90 | 100 | 100 | 30 | 100 | 100 |
| Cc1cnc(-c2ccc(Cl)cc2)nc1C1C(=O)[C@@H]2[C@H](C1=O)[C@H]1CC[C@@H]2O1 (stereo partly drawn) [Compound T53] | 70 | 80 | 90 | 90 | 50 | 70 | 90 | 0 | 100 | 60 |
| Cc1sc(-c2cccs2)nc1C1C(=O)[C@@H]2[C@H](C1=O)[C@H]1CC[C@@H]2O1 (stereo partly drawn) [Compound T32] | 0 | 0 | 0 | 40 | 0 | 0 | 30 | 0 | 70 | 0 |
| Cc1sc(-c2ccc(OC(F)F)cc2Cl)nc1C1=C(OC(=O)C(C)(C)C)[C@@H]2[C@H](C1=O)[C@H]1CC[C@@H]2O1 (racemic) [Compound P9] | 50 | 90 | 0 | 90 | 70 | 90 | 100 | 0 | 100 | 100 |
| CC(=O)OC1=C(c2nc(-c3ccc(OC(F)F)cc3F)sc2C)C(=O)[C@H]2[C@@H]1[C@@H]1CC[C@H]2O1 (racemic) [Compound P10] | 100 | 100 | 0 | 100 | 90 | 100 | 100 | 20 | 100 | 100 |
| Cc1sc(-c2ccc(Br)cn2)nc1C1=C(OC(=O)C2CC2)[C@@H]2[C@H](C1=O)[C@H]1CC[C@@H]2O1 (racemic) [Compound P6] | 0 | 20 | 0 | 70 | 0 | 90 | 100 | 0 | 100 | 90 |
